# Measurements reported in ChEMBL document CHEMBL4402545, “Subtype Selective γ-Aminobutyric Acid Type A Receptor (GABAAR) Modulators Acting at the Benzodiazepine Binding Site: An Update” (J Med Chem, 2020).
# Tests used:
# Rattus norvegicus [1] = assay: In vivo receptor occupancy at GABAA receptor in sc dosed rat brain; format: functional
# Homo sapiens [2] = assay: In vivo receptor occupancy GABAA receptor in human assessed as occipital cortex concentration causing reduction in [11C]flumazenil receptor labeling at 20 mg by PET method relative to control; format: functional
# Homo sapiens [3] = assay: In vivo receptor occupancy GABAA receptor in human assessed as cerebellum concentration causing reduction in [11C]flumazenil receptor labeling at 20 mg by PET method relative to control; format: functional
# Rattus norvegicus [4] = assay: In vivo receptor occupancy at GABAA receptor in po dosed Crl:CD Sprague-Dawley rat assessed as brain concentration causing 50% reduction in [3H]-Ro15-4513 receptor labeling after 1 hr; format: functional
# [5] = molecular target: T1, Gamma-aminobutyric acid receptor subunit alpha-3 (Homo sapiens, UniProt P34903); assay: Binding affinity to GABA-A alpha3 (unknown origin)
# T1 sequence (P34903 whole entry): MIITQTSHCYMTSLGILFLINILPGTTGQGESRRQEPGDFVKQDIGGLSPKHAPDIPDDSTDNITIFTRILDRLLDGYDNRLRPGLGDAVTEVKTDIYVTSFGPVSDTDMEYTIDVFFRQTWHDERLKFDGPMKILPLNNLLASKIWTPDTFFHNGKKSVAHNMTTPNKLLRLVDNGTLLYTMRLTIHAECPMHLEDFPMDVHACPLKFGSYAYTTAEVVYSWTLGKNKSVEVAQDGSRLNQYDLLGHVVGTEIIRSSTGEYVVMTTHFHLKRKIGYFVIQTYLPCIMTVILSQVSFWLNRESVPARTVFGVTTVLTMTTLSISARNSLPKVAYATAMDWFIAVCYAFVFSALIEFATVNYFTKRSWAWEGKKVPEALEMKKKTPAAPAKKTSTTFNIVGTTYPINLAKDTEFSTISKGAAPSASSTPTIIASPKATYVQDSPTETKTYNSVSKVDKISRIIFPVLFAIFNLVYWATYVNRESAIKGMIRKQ
# [6] = molecular target: T2, Gamma-aminobutyric acid receptor subunit alpha-2 (Homo sapiens) (UniProt P47869); assay: Binding affinity to GABA-A alpha2 (unknown origin) assessed as reduction in DMCM induced current relative to control
# T2 sequence (whole entry): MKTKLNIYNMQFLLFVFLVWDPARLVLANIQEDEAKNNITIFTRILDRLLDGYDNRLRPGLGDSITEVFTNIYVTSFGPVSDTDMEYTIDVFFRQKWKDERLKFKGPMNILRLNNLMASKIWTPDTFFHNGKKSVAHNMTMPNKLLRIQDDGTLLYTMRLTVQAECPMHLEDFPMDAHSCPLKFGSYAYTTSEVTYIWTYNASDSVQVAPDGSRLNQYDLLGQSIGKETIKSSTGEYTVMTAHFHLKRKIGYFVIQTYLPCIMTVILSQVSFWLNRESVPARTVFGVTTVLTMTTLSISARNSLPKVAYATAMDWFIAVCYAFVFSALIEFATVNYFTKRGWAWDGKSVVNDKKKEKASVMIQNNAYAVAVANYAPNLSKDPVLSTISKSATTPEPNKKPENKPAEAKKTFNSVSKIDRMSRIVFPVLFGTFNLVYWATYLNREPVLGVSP
# [7] = molecular target: T3, Gamma-aminobutyric acid receptor subunit alpha-2 (Homo sapiens, UniProt P47869); assay: Binding affinity to GABA-A alpha2 (unknown origin)
# T3 sequence (P47869 whole entry): T2 sequence (whole entry)
# [8] = molecular target: T4, Gamma-aminobutyric acid receptor subunit alpha-1 (Homo sapiens) (UniProt P14867); assay: Negative allosteric modulation of GABA-A alpha1 (unknown origin) assessed as reduction in DMCM induced current relative to control
# T4 sequence (whole entry): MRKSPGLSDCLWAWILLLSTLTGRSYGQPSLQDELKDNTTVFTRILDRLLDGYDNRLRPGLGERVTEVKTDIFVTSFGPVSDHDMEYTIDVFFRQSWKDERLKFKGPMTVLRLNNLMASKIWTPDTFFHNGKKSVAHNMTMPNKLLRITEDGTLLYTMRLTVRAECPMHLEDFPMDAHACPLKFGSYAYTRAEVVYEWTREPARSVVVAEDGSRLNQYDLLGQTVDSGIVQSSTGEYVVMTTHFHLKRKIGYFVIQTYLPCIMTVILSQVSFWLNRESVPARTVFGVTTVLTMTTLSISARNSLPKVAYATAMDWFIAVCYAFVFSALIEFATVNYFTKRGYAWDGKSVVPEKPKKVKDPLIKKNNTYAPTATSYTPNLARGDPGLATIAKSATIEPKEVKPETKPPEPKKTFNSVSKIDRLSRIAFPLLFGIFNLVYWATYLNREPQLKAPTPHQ
# [9] = molecular target: T5, Gamma-aminobutyric acid receptor subunit alpha-3 (Homo sapiens) (UniProt P34903); assay: Binding affinity to GABA-A alpha3 (unknown origin) assessed as reduction in DMCM induced current relative to control
# T5 sequence (whole entry): T1 sequence (P34903 whole entry)
# [10] = molecular target: T6, Gamma-aminobutyric acid receptor subunit alpha-1 (Homo sapiens, UniProt P14867); assay: Binding affinity to GABA-A alpha1 (unknown origin)
# T6 sequence (P14867 whole entry): T4 sequence (whole entry)
# Rattus norvegicus [11] = assay: In vivo receptor occupancy at GABAA receptor in po dosed Wistar rat brain assessed as brain concentration causing reduction in [3H]Flunitrazepam receptor labeling by scintillation counting method; format: functional
# [12] = molecular target: T2, Gamma-aminobutyric acid receptor subunit alpha-2 (Homo sapiens); assay: Binding affinity to GABA-A alpha2 (unknown origin) assessed as increase in induced current relative to control
# [13] = Displacement of [3H]-Ro15-1788 from human GABAA alpha2beta3gamma2 expressed in HEK293 cell membranes incubated for 40 or 90 mins by liquid scintillation counting method
# [14] = molecular target: T5, Gamma-aminobutyric acid receptor subunit alpha-3 (Homo sapiens); assay: Binding affinity to GABA-A alpha3 (unknown origin) assessed as increase in induced current relative to control
# [15] = molecular target: T4, Gamma-aminobutyric acid receptor subunit alpha-1 (Homo sapiens); assay: Binding affinity to GABA-A alpha1 (unknown origin) assessed as increase in induced current relative to control
# [16] = molecular target: T7, GABA-A receptor; alpha-3/beta-3/gamma-2 (Homo sapiens, UniProt P18507+P28472+P34903); assay: Displacement of [3H]-Ro15-1788 from human GABAA alpha3beta3gamma2 expressed in HEK293 cell membranes incubated for 40 or 90 mins by liquid scintillation counting method
# T7 sequence (P18507 whole entry): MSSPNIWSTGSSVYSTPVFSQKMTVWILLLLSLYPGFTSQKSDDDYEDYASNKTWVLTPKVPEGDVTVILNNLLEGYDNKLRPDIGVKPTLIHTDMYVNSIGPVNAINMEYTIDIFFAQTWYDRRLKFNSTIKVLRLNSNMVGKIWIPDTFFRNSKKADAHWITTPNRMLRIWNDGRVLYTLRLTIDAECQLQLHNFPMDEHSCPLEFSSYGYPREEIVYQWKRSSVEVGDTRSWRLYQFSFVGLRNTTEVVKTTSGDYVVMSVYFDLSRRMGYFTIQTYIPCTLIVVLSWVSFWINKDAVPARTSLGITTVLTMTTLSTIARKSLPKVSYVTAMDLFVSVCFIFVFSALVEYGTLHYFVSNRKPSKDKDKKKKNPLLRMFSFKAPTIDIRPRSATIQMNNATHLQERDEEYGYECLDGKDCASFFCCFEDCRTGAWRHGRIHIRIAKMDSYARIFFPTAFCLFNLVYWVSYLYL
# T7 sequence (P28472 whole entry): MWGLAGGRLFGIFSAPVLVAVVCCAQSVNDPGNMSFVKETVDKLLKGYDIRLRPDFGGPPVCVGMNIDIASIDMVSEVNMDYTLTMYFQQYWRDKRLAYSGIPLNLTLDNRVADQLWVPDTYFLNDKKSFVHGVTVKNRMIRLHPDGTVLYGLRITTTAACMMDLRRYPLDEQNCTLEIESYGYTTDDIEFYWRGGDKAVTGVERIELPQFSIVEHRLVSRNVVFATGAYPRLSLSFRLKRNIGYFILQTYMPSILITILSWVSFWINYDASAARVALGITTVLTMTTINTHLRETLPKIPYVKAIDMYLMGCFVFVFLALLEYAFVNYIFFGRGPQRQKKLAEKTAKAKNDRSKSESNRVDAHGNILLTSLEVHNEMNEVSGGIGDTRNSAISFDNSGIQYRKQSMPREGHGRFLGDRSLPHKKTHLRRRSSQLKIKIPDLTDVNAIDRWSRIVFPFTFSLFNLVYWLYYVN
# T7 sequence (P34903 whole entry): T1 sequence (P34903 whole entry)
# [17] = molecular target: T8, GABA-A receptor; alpha-5/beta-3/gamma-2 (Homo sapiens, UniProt P18507+P28472+P31644); assay: Displacement of [3H]-Ro15-1788 from human GABAA alpha5beta3gamma2 expressed in HEK293 cell membranes incubated for 40 or 90 mins by liquid scintillation counting method
# T8 sequence (P18507 whole entry): T7 sequence (P18507 whole entry)
# T8 sequence (P28472 whole entry): T7 sequence (P28472 whole entry)
# T8 sequence (P31644 whole entry): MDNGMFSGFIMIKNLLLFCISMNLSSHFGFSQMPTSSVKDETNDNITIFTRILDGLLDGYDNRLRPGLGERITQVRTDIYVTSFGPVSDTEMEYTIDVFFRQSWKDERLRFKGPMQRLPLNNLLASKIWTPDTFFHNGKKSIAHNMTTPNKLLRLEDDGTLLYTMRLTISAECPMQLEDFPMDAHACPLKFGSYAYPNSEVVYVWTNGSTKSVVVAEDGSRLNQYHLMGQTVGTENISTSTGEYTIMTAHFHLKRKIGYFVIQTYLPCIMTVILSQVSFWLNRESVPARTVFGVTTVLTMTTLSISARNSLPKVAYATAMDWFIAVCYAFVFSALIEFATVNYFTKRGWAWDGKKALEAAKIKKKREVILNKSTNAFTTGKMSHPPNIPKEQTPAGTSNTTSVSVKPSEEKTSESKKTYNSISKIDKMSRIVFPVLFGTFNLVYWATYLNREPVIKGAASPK
# [18] = molecular target: T9, GABA-A receptor; alpha-1/beta-3/gamma-2 (Homo sapiens, UniProt P14867+P18507+P28472); assay: Displacement of [3H]-Ro15-1788 from human GABAA alpha1beta3gamma2 expressed in HEK293 cell membranes incubated for 40 or 90 mins by liquid scintillation counting method
# T9 sequence (P14867 whole entry): T4 sequence (whole entry)
# T9 sequence (P18507 whole entry): T7 sequence (P18507 whole entry)
# T9 sequence (P28472 whole entry): T7 sequence (P28472 whole entry)
# [19] = molecular target: T10, Gamma-aminobutyric acid receptor subunit alpha-5 (Homo sapiens) (UniProt P31644); assay: Binding affinity to GABA-A alpha5 (unknown origin) assessed as increase in induced current relative to control
# T10 sequence (whole entry): T8 sequence (P31644 whole entry)
structure (smiles),measurement,setting,value
CCCNC(=O)c1nnc2c(-c3c(F)cccc3OC)cccc2c1N [AZD7325],Occ50,Rattus norvegicus [1],1 to 2 µM/g
same,Occ,Homo sapiens [2],83%
same,Occ,Homo sapiens [3],83%
Cc1c(F)c(Nc2ccc(-c3cn(C)cn3)cn2)cc2c1ncn2CC1CC1,Occ50,Rattus norvegicus [4],1.9 mg/kg
same,Ki,[5],24 nM
same,Efficacy,[6],0%
same,Ki,[7],32 nM
same,Efficacy,[8],0%
same,Efficacy,[9],0%
same,Ki,[10],140 nM
CC(C)(O)c1ccc2c(c1)ncn2-c1cccc(-c2ccccc2C#N)c1,Occ50,Rattus norvegicus [11],0.69 mg/kg
same,fold change (FC),[12],0.26
same,Ki,[13],0.84 nM
same,fold change (FC),[14],0.52
same,fold change (FC),[15],0.08
same,Ki,[16],0.5 nM
same,Ki,[17],0.12 nM
same,Ki,[18],0.41 nM
same,fold change (FC),[19],0.78
